Source: patent publication US20130302282A1, “Inhibitors of Hepatitis C Virus” (priority 2010, published 2013)
Read-outs that look alike come from different tables or passages of the source.

Test system: 1b_Huh-Luc/Neo-ET cell line (bicistronic genotype 1b replicon in Huh 7 cells)
Assay: HCV 1b replicon assay, luciferase readout
Format: cell-based, HCV genotype 1b
Method: Biological activity of the compounds of the invention was determined using an HCV replicon assay. The 1b_Huh-Luc/Neo-ET cell line persistently expressing a bicistronic genotype 1b replicon in Huh 7 cells was obtained from ReBLikon GMBH. This cell line was used to test compound inhibition using luciferase enzyme activity readout as a measurement of compound inhibition of replicon levels.
On Day 1 (the day after plating), each compound is added in triplicate to the cells. Plates incubated for 72 […] prior to running the luciferase assay. Enzyme activity was measured using a Bright-Glo Kit (cat. number E2620) manufactured by Promega Corporation. The following equation was used to generate a percent control value for each compound.
%Control=(Average Compound Value/Average Control)*100
The EC50 value was determined using GraphPad Prism and the following equation:
Y=Bottom+(Top−Bottom)/(1+10̂((LogIC50−X)*HillSlope))
EC50 values of compounds are repeated several times in the replicon assay.

[1] = Hepatitis C virus, Huh-7, 1b_Huh-Luc/Neo-ET cell line, read-out: EC50, half-maximal inhibition of HCV 1b replication
[2] = Hepatitis C virus, Huh-7, class symbol, HCV genotype 1b replicon, read-out: Inhibition of HCV genotype 1b replicon

Question: Which EC50 [1] does the source give for `CNC(=O)c1c(-c2ccc(F)cc2)oc2cc3c(cc12)C(C)OC(C(=O)N1CCOCC1)CN3S(C)(=O)=O` (centres unmarked) [Compound B228] here?
Answer: The EC50 was 10 to 100 nM.

Question: What about the EC50 [2] of the same compound?
Answer: The EC50 was 10 to 100 nM.

Question: What does the source list for `CNC(=O)c1c(-c2ccc(F)cc2)oc2cc3c(cc12)C(C)OC(CS(C)(=O)=O)CN3S(C)(=O)=O` (centres unmarked) [Compound B196]?
Answer: EC50 [1]: ≤ 10 nM; EC50 [2]: < 10 nM

Question: For `CNC(=O)c1c(-c2ccc(F)cc2)oc2cc3c(cc12)[C@H](C)O[C@H](CCS(C)(=O)=O)CN3S(C)(=O)=O` [Compound B233], which EC50 [1] is on record?
Answer: Its EC50 is at most 10 nM.

Question: And the EC50 [2]?
Answer: The EC50 was under 10 nM.

Question: What does the source list for `CNC(=O)c1c(-c2ccc(F)cc2)oc2cc3c(cc12)C(C)OC(CN(C)C)CN3S(C)(=O)=O` (centres unmarked) [Compound B222]?
Answer: EC50 [1]: 10 to 100 nM; EC50 [2]: 10 to 100 nM

Question: What does the source list for `CNC(=O)c1c(-c2ccc(Oc3ccc(F)cc3)cc2)oc2cc3c(cc12)[C@@H](C)OC1(CC1)CN3S(C)(=O)=O` (single isomer, unassigned) [Compound B186]?
Answer: EC50 [1]: 10 to 100 nM; EC50 [2]: 10 to 100 nM

Question: `CNC(=O)c1c(-c2ccc(F)cc2)oc2cc3c(cc12)[C@@H](C)O[C@@H](CO)CN3S(C)(=O)=O` [Compound B211] was tested. Which EC50 [2] did it give?
Answer: The EC50 was over 1000 nM.

Question: For `CNC(=O)c1c(-c2ccc(F)cc2)oc2cc3c(cc12)C(C(F)(F)F)OCCN3S(C)(=O)=O` (centres unmarked) [Compound B148], which EC50 [1] is on record?
Answer: Its EC50 is at most 10 nM.

Question: And the EC50 [2]?
Answer: Its EC50 is under 10 nM.

Question: `CNC(=O)c1c(-c2ccc(Oc3ccc(F)cc3)cc2)oc2cc3c(cc12)[C@H](C)O[C@H](COP(=O)(O)O)CN3S(C)(=O)=O` [Compound B240] was tested. Which EC50 [1] did it give?
Answer: The EC50 was at most 10 nM.

Question: And the EC50 [2]?
Answer: The EC50 was under 10 nM.

Question: Which results are given for `CNC(=O)c1c(-c2ccc(Oc3ccc(F)cc3)cc2)oc2cc3c(cc12)C(C)n1nncc1CN3S(C)(=O)=O` (centres unmarked) [Compound B158]?
Answer: EC50 [1]: ≤ 10 nM; EC50 [2]: < 10 nM

Question: `CNC(=O)c1c(-c2ccc(F)cc2)oc2cc3c(cc12)C(C)N(S(C)(=O)=O)CCN3S(C)(=O)=O` (centres unmarked) [Compound B157] was tested. Which EC50 [1] did it give?
Answer: Its EC50 is 10 to 100 nM.

Question: What about the EC50 [2] of the same compound?
Answer: The EC50 was 10 to 100 nM.

Question: `CNC(=O)c1c(-c2ccc(Br)cc2)nn2cc3c(cc12)C(C)CCCN3S(C)(=O)=O` (centres unmarked) [Compound B89] was tested. Which EC50 [2] did it give?
Answer: The EC50 was 10 to 100 nM.

Question: Which results are given for `CNC(=O)c1c(-c2ccc(F)cc2)oc2cc3c(cc12)C(C)OC(C(=O)N1CCCC1)CN3S(C)(=O)=O` (centres unmarked) [Compound B227]?
Answer: EC50 [1]: 10 to 100 nM; EC50 [2]: 10 to 100 nM

Question: For `[2H]C([2H])([2H])NC(=O)c1c(-c2ccc(Oc3ccc(F)cc3)cc2)oc2cc3c(cc12)C(C)N(C)CCN3S(C)(=O)=O` (centres unmarked) [Compound B160], which EC50 [1] is on record?
Answer: The EC50 was 10 to 100 nM.

Question: What about the EC50 [2] of the same compound?
Answer: The EC50 was 10 to 100 nM.

Question: How did the EC50 [2] turn out when `CNC(=O)c1c(-c2ccc(F)cc2)nn2cc3c(cc12)[C@H](C)CCCN3S(C)(=O)=O` (single isomer, unassigned) [Compound B52] was run?
Answer: Its EC50 is 100 to 1000 nM.

Question: With `CNC(=O)c1c(-c2ccc(F)cc2)oc2cc3c(cc12)[C@@H](C)n1nncc1CN3S(C)(=O)=O` (single isomer, unassigned) [Compound B170] as the compound, how does the EC50 [1] read?
Answer: Its EC50 is 10 to 100 nM.

Question: And the EC50 [2]?
Answer: The EC50 was 10 to 100 nM.

Question: `CNC(=O)c1c(-c2ccc(F)cc2)oc2cc3c(cc12)[C@H](C)O[C@H](CS(C)(=O)=O)CN3S(C)(=O)=O` [Compound B215] was tested. Which EC50 [1] did it give?
Answer: Its EC50 is 10 to 100 nM.

Question: What about the EC50 (class symbol, HCV genotype 1b replicon, read-out: Inhibition of HCV genotype 1b replicon) of the same compound?
Answer: The EC50 was 10 to 100 nM.

Question: How did the EC50 [2] turn out when `CNC(=O)c1c(-c2ccc(Oc3ccc(F)cc3)cc2)oc2cc3c(cc12)C=CCCN3S(C)(=O)=O` [Compound B135] was run?
Answer: Its EC50 is 100 to 1000 nM.

Question: What does the source list for `CNC(=O)c1c(-c2ccc(F)cc2)oc2cc3c(cc12)C(C)N(C)C(=O)CN3S(C)(=O)=O` (centres unmarked) [Compound B172]?
Answer: EC50 [1]: 10 to 100 nM; EC50 [2]: 10 to 100 nM

Question: For `CNC(=O)c1c(-c2ccc(Oc3ccc(F)cc3)cc2)oc2cc3c(cc12)C(C)OC1(CC1)CN3S(C)(=O)=O` (centres unmarked) [Compound B178], which EC50 [1] is on record?
Answer: Its EC50 is 10 to 100 nM.

Question: What about the EC50 [2] of the same compound?
Answer: Its EC50 is 10 to 100 nM.

Question: Which EC50 [1] does the source give for `CNC(=O)c1c(-c2ccc(Oc3ccc(F)cc3)cc2)oc2cc3c(cc12)CCCCN3S(C)(=O)=O` [Compound B136] here?
Answer: The EC50 was 10 to 100 nM.

Question: What about the EC50 [2] of the same compound?
Answer: The EC50 was 10 to 100 nM.

Question: For `CNC(=O)c1c(-c2ccc(F)cc2)oc2cc3c(cc12)C(C)OC(C)CN3S(C)(=O)=O` (centres unmarked) [Compound B190], which EC50 [1] is on record?
Answer: The EC50 was at most 10 nM.

Question: What about the EC50 [2] of the same compound?
Answer: The EC50 was under 10 nM.
